Like-named read-outs stand apart in the source and are kept apart here. Non-standard residues stand in square brackets, D forms with d. Residues, ends and D or L forms follow the SMILES beside them. Cit = NC(=O)NCCC[C@H](N)C(=O)O

Consider 10 molecules from paper PMC8986778, “Citrullination of glucokinase is linked to autoimmune diabetes” (Nature Communications, 2022).

This experiment deals with T1, DR0401 protein (Homo sapiens, UniProt P01903+P01911, A100K/A169T/F76Y/I96L/K127E/L162R/M171V/N62H/P40V/Q125Y/R42H/S133A/S149N/S66Y/V115G/V209L/W38E).
T1 construct: made in house; host or cells: insect cell cultures
As to the kind of experiment: DR0401 peptide binding competition assay. To be noted: competition with biotin-HA306-318 0.02 μM.

The mark [1] stands for this setting: Supplementary Table 3, representative values from two replicate experiments, read-out: IC50 (Effect of Citrulline or Arg Substitution).
[2] abbreviates: Supplementary Table 2, read-out: IC50 (Binding of Predicted Glucokinase Peptides to DR04:01).

A word on the IC50: it is the midpoint of a concentration-inhibition curve. Take `CC[C@H](C)[C@H](NC(=O)[C@H](CC(N)=O)NC(=O)[C@H](Cc1ccc(O)cc1)NC(=O)[C@@H](NC(=O)[C@H](CCC(N)=O)NC(=O)[C@@H](N)CCCCN)[C@@H](C)CC)C(=O)N[C@@H](CC(C)C)C(=O)N[C@@H](CO)C(=O)N[C@H](C(=O)N[C@@H](CC(C)C)C(=O)NCC(=O)N[C@@H](CC(C)C)C(=O)N[C@@H](CCCNC(=N)N)C(=O)N1CCC[C@H]1C(=O)N[C@@H](CO)C(=O)O)[C@@H](C)O` [GK 346 WT] (H-KQIYNILSTLGLRPS-OH): under setting [1], the IC50 was determined as 0.47 µM.
With `CC[C@H](C)[C@H](NC(=O)[C@H](CC(N)=O)NC(=O)[C@H](Cc1ccc(O)cc1)NC(=O)[C@@H](NC(=O)[C@H](CCC(N)=O)NC(=O)[C@@H](N)CCCCN)[C@@H](C)CC)C(=O)N[C@@H](CC(C)C)C(=O)N[C@@H](CO)C(=O)N[C@H](C(=O)N[C@@H](CC(C)C)C(=O)NCC(=O)N[C@@H](CC(C)C)C(=O)N[C@@H](CCCNC(N)=O)C(=O)N1CCC[C@H]1C(=O)N[C@@H](CO)C(=O)O)[C@@H](C)O` [GK 346] (H-KQIYNILSTLGL[Cit]PS-OH), under setting [1], the concentration for half-maximal inhibition (IC50) amounted to 0.54 µM.
For the molecule `CC[C@H](C)[C@H](NC(=O)[C@H](CC(N)=O)NC(=O)[C@@H](N)Cc1ccc(O)cc1)C(=O)N[C@@H](CC(C)C)C(=O)N[C@@H](CO)C(=O)N[C@H](C(=O)N[C@@H](CC(C)C)C(=O)NCC(=O)N[C@@H](CC(C)C)C(=O)N[C@@H](CCCNC(N)=O)C(=O)N1CCC[C@H]1C(=O)N[C@@H](CO)C(=O)N[C@H](C(=O)N[C@H](C(=O)N[C@@H](CC(=O)O)C(=O)O)[C@@H](C)O)[C@@H](C)O)[C@@H](C)O` [GK 349-363] (H-YNILSTLGL[Cit]PSTTD-OH; N-terminus and C-terminus assumed), the concentration for half-maximal inhibition (IC50) under setting [2] is over 50 µM.
On to `CC[C@H](C)[C@H](NC(=O)[C@H](CC(=O)O)NC(=O)[C@H](CS)NC(=O)[C@H](CC(=O)O)NC(=O)[C@@H](NC(=O)[C@@H](NC(=O)[C@H](CO)NC(=O)[C@@H]1CCCN1C(=O)[C@H](CCCNC(N)=O)NC(=O)[C@H](CC(C)C)NC(=O)CNC(=O)[C@H](CC(C)C)NC(=O)[C@@H](NC(=O)[C@H](CO)NC(=O)[C@@H](N)CC(C)C)[C@@H](C)O)[C@@H](C)O)[C@@H](C)O)C(=O)O` [GK 352-366] (H-LSTLGL[Cit]PSTTDCDI-OH; N-terminus and C-terminus assumed), for which the IC50 under setting [2] was over 50 µM.
Take `CC[C@H](C)[C@H](NC(=O)[C@@H](N)CC(=O)O)C(=O)N[C@H](C(=O)N[C@@H](CCCNC(N)=O)C(=O)N[C@@H](CCCNC(=N)N)C(=O)N[C@@H](C)C(=O)N[C@@H](CS)C(=O)N[C@@H](CCC(=O)O)C(=O)N[C@@H](CO)C(=O)N[C@H](C(=O)N[C@@H](CO)C(=O)N[C@H](C(=O)N[C@@H](CCCNC(N)=O)C(=O)N[C@@H](C)C(=O)O)[C@@H](C)O)C(C)C)C(C)C` [GK 365-378] (H-DIV[Cit]RACESVST[Cit]A-OH; N-terminus and C-terminus assumed): under setting [2], the IC50 was over 50 µM.
As for `CC[C@H](C)[C@H](NC(=O)[C@@H](NC(=O)CNC(=O)[C@H](C)N)C(C)C)C(=O)N[C@@H](CC(N)=O)C(=O)N[C@@H](CCCNC(N)=O)C(=O)N[C@@H](CCSC)C(=O)N[C@@H](CCCNC(N)=O)C(=O)N[C@@H](CCC(=O)O)C(=O)N[C@@H](CO)C(=O)N[C@@H](CCCNC(N)=O)C(=O)N[C@@H](CO)C(=O)N[C@@H](CCC(=O)O)C(=O)N[C@@H](CC(=O)O)C(=O)N[C@H](C(=O)O)C(C)C` [GK 387-401] (H-AGVIN[Cit]M[Cit]ES[Cit]SEDV-OH; N-terminus and C-terminus assumed), the IC50 under setting [2] was over 50 µM.
The same measure, in the same setting: under `CC[C@H](C)[C@H](NC(=O)[C@H](CCCNC(N)=O)NC(=O)[C@H](CCSC)NC(=O)[C@@H](NC(=O)[C@H](CC(=O)O)NC(=O)[C@H](CCC(=O)O)NC(=O)[C@@H](N)CO)C(C)C)C(=O)N[C@H](C(=O)N[C@H](C(=O)NCC(=O)N[C@H](C(=O)N[C@@H](CC(=O)O)C(=O)NCC(=O)N[C@@H](CO)C(=O)N[C@H](C(=O)O)C(C)C)C(C)C)C(C)C)[C@@H](C)O` [GK 398-412] (H-SEDVM[Cit]ITVGVDGSV-OH; N-terminus and C-terminus assumed) stands over 50 µM; under `CC(C)C[C@H](NC(=O)[C@H](CCCCN)NC(=O)[C@H](Cc1ccc(O)cc1)NC(=O)[C@@H](NC(=O)[C@H](CO)NC(=O)CN)C(C)C)C(=O)N[C@@H](Cc1c[nH]cn1)C(=O)N1CCC[C@H]1C(=O)N[C@@H](CO)C(=O)N[C@@H](Cc1ccccc1)C(=O)N[C@@H](CCCCN)C(=O)N[C@@H](CCC(=O)O)C(=O)N[C@@H](CCCNC(N)=O)C(=O)N[C@@H](Cc1ccccc1)C(=O)N[C@@H](Cc1c[nH]cn1)C(=O)O` [GK 410-424] (H-GSVYKLHPSFKE[Cit]FH-OH; N-terminus and C-terminus assumed), over 50 µM.
With `CC(C)C[C@H](NC(=O)[C@H](CCCNC(N)=O)NC(=O)[C@H](CCCNC(=N)N)NC(=O)[C@@H](NC(=O)[C@H](CO)NC(=O)[C@H](C)NC(=O)[C@H](Cc1c[nH]cn1)NC(=O)[C@H](Cc1ccccc1)NC(=O)[C@H](CCCNC(N)=O)NC(=O)[C@H](CCC(=O)O)NC(=O)[C@H](CCCCN)NC(=O)[C@H](Cc1ccccc1)NC(=O)[C@H](CO)NC(=O)[C@@H]1CCCN1C(=O)[C@@H](N)Cc1c[nH]cn1)C(C)C)C(=O)O` [GK 416-439] (H-HPSFKE[Cit]FHASVR[Cit]L-OH; N-terminus and C-terminus assumed), the IC50 under setting [2] is over 50 µM.
As for `CC[C@H](C)[C@H](NC(=O)[C@H](Cc1ccccc1)NC(=O)[C@@H](NC(=O)[C@@H](NC(=O)[C@@H](N)CCC(=O)O)[C@@H](C)CC)[C@@H](C)O)C(=O)N[C@@H](CCC(=O)O)C(=O)N[C@@H](CO)C(=O)N[C@@H](CCC(=O)O)C(=O)N[C@@H](CCC(=O)O)C(=O)NCC(=O)N[C@@H](CO)C(=O)NCC(=O)N[C@@H](CCCNC(N)=O)C(=O)NCC(=O)N[C@@H](C)C(=O)O` [GK 435-449] (H-EITFIESEEGSG[Cit]GA-OH; N-terminus and C-terminus assumed), the IC50 under setting [2] is over 50 µM.
